Assay results from patent US20230085307A1, “PYRIDAZINONE COMPOUND AND HERBICIDE” (NISSAN CHEMICAL CORPORATION, priority 2019, published 2023).

What was measured:
lambsquarters [1] = experiment: Test Example 4: herbicidal effect by soil treatment (Table 19, symbol O); type: in vivo, lambsquarters (Chenopodium album); conditions: amount of applied herbicide 320 g/ha
Method in brief: (§1)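 Soil-surface application: an emulsion agent diluted with water to the predetermined dose is sprayed uniformly over seeds lying under roughly 1.5 cm of sterilized diluvial soil. Boxes stay in a greenhouse at 25° C. to 30° C. Three weeks later, each species is graded on previously defined criteria.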

southern crabgrass [2] = experiment: Test Example 5: herbicidal effect by foliage application, plastic box (Table 20, symbol F); type: in vivo, southern crabgrass (Digitaria ciliaris); conditions: 320 g/ha
Method in brief: (§2)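 Sow seeds spot-wise in sterilized diluvial soil; cover with ~1.5 cm soil. Grow 14 days in greenhouse, 25° C. to 30° C. Spray foliage with emulsion diluted to predetermined amount. Rate effect after 3 weeks.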

lambsquarters [3] = experiment: Test Example 5: herbicidal effect by foliage application, plastic box (Table 20, symbol O); type: in vivo, lambsquarters (Chenopodium album); conditions: 320 g/ha
Method in brief: as §2

Italian ryegrass [4] = experiment: Test Example 4: herbicidal effect by soil treatment (Table 19, symbol K); type: in vivo, Italian ryegrass (Lolium multiflorum); conditions: amount of applied herbicide 320 g/ha
Method in brief: as §1

Italian ryegrass [5] = experiment: Test Example 5: herbicidal effect by foliage application, plastic box (Table 20, symbol K); type: in vivo, Italian ryegrass (Lolium multiflorum); conditions: 320 g/ha
Method in brief: as §2

barnyard grass [6] = experiment: Test Example 5: herbicidal effect by foliage application, plastic box (Table 20, symbol H); type: in vivo, barnyard grass (Echinochloa crus-galli); conditions: 320 g/ha
Method in brief: as §2

blackgrass [7] = experiment: Test Example 5: herbicidal effect by foliage application, plastic box (Table 20, symbol J); type: in vivo, blackgrass (Alopecurus myosuroides); conditions: 320 g/ha
Method in brief: as §2

green foxtail [8] = experiment: Test Example 5: herbicidal effect by foliage application, plastic box (Table 20, symbol G); type: in vivo, green foxtail (Setaria viridis); conditions: 320 g/ha
Method in brief: as §2

chickweed [9] = experiment: Test Example 5: herbicidal effect by foliage application, plastic box (Table 20, symbol P); type: in vivo, common chickweed (Stellaria media); conditions: 320 g/ha
Method in brief: as §2

barnyard grass [10] = experiment: Test Example 4: herbicidal effect by soil treatment (Table 19, symbol H); type: in vivo, barnyard grass (Echinochloa crus-galli); conditions: amount of applied herbicide 320 g/ha
Method in brief: as §1

chickweed [11] = experiment: Test Example 4: herbicidal effect by soil treatment (Table 19, symbol P); type: in vivo, common chickweed (Stellaria media); conditions: amount of applied herbicide 320 g/ha
Method in brief: as §1

rice flat sedge = experiment: Test Example 3: herbicidal effect by foliage application, Wagner pot (Table 18, symbol E); type: in vivo, rice flat sedge (Cyperus iria); conditions: 320 g/ha
Method in brief: (§3)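 Plants were sown in alluvial soil held under 0.1–0.5 cm standing water and grown 14 days in a greenhouse at 25–30 °C. An emulsifiable formulation, water-diluted to the set dose, was then sprayed onto the foliage, and effects were scored three weeks later using previously defined criteria.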

blackgrass [12] = experiment: Test Example 4: herbicidal effect by soil treatment (Table 19, symbol J); type: in vivo, blackgrass (Alopecurus myosuroides); conditions: amount of applied herbicide 320 g/ha
Method in brief: as §1

redroot pigweed [13] = experiment: Test Example 5: herbicidal effect by foliage application, plastic box (Table 20, symbol N); type: in vivo, redroot pigweed (Amaranthus retroflexus); conditions: 320 g/ha
Method in brief: as §2

green foxtail [14] = experiment: Test Example 4: herbicidal effect by soil treatment (Table 19, symbol G); type: in vivo, green foxtail (Setaria viridis); conditions: amount of applied herbicide 320 g/ha
Method in brief: as §1

Chinese sprangletop = experiment: Test Example 3: herbicidal effect by foliage application, Wagner pot (Table 18, symbol D); type: in vivo, chinese sprangletop (Leptochloa chinensis); conditions: 320 g/ha
Method in brief: as §3

velvetleaf [15] = experiment: Test Example 5: herbicidal effect by foliage application, plastic box (Table 20, symbol M); type: in vivo, velvetleaf (Abutilon theophrasti); conditions: 320 g/ha
Method in brief: as §2

velvetleaf [16] = experiment: Test Example 4: herbicidal effect by soil treatment (Table 19, symbol M); type: in vivo, velvetleaf (Abutilon theophrasti); conditions: amount of applied herbicide 320 g/ha
Method in brief: as §1

wild oat [17] = experiment: Test Example 4: herbicidal effect by soil treatment (Table 19, symbol I); type: in vivo, wild oat (Avena fatua); conditions: amount of applied herbicide 320 g/ha
Method in brief: as §1

southern crabgrass [18] = experiment: Test Example 4: herbicidal effect by soil treatment (Table 19, symbol F); type: in vivo, southern crabgrass (Digitaria ciliaris); conditions: amount of applied herbicide 320 g/ha
Method in brief: as §1

windgrass [19] = experiment: Test Example 4: herbicidal effect by soil treatment (Table 19, symbol L); type: in vivo, windgrass (Apera spica-venti); conditions: amount of applied herbicide 320 g/ha
Method in brief: as §1

windgrass [20] = experiment: Test Example 5: herbicidal effect by foliage application, plastic box (Table 20, symbol L); type: in vivo, windgrass (Apera spica-venti); conditions: 320 g/ha
Method in brief: as §2

persian speedwell [21] = experiment: Test Example 4: herbicidal effect by soil treatment (Table 19, symbol R); type: in vivo, Persian speedwell (Veronica persica); conditions: amount of applied herbicide 320 g/ha
Method in brief: as §1

wild oat [22] = experiment: Test Example 5: herbicidal effect by foliage application, plastic box (Table 20, symbol I); type: in vivo, wild oat (Avena fatua); conditions: 320 g/ha
Method in brief: as §2

barnyard grass [23] = experiment: Test Example 3: herbicidal effect by foliage application, Wagner pot (Table 18, symbol H); type: in vivo, barnyard grass (Echinochloa crus-galli); conditions: 320 g/ha
Method in brief: as §3

redroot pigweed [24] = experiment: Test Example 4: herbicidal effect by soil treatment (Table 19, symbol N); type: in vivo, redroot pigweed (Amaranthus retroflexus); conditions: amount of applied herbicide 320 g/ha
Method in brief: as §1

persian speedwell [25] = experiment: Test Example 5: herbicidal effect by foliage application, plastic box (Table 20, symbol R); type: in vivo, Persian speedwell (Veronica persica); conditions: 320 g/ha
Method in brief: as §2

[26] = foliage application, three weeks after application
[27] = foliage application after 14-day growth, evaluated three weeks after application

Row | SMILES | Herbicidal effect by soil treatment, O: lambsquarters (lambsquarters [1]) | Herbicidal effect by soil treatment, K: Italian ryegrass (Italian ryegrass [4]) | Herbicidal effect by soil treatment, H: barnyard grass (barnyard grass [10]) | Herbicidal effect by soil treatment, P: chickweed (chickweed [11]) | herbicidal effect on rice flat sedge (E) (rice flat sedge) | Herbicidal effect by soil treatment, J: blackgrass (blackgrass [12]) | Herbicidal effect by soil treatment, G: green foxtail (green foxtail [14]) | herbicidal effect on Chinese sprangletop (D) (Chinese sprangletop) | Herbicidal effect by soil treatment, M: velvetleaf (velvetleaf [16]) | Herbicidal effect by soil treatment, I: wild oat (wild oat [17]) | Herbicidal effect by soil treatment, F: southern crabgrass (southern crabgrass [18]) | Herbicidal effect by soil treatment, L: windgrass (windgrass [19]) | Herbicidal effect by soil treatment, R: persian speedwell (persian speedwell [21]) | herbicidal effect on barnyard grass (H) (barnyard grass [23]) | Herbicidal effect by soil treatment, N: redroot pigweed (redroot pigweed [24]) | also measured
1 | Cc1nn(C)c(=O)c(-c2c(-c3ccc(C(F)(F)F)cc3)sc3cc(F)ccc23)c1O [3-139] | 3 (Herbicidal rate of 40% or more and less than 70%) | 0 (Herbicidal rate of 5% or less (almost no effect)) | 0 (Herbicidal rate of 5% or less (almost no effect)) | 0 (Herbicidal rate of 5% or less (almost no effect)) | 4 (Herbicidal rate of 70% or more and less than 90%) | 0 (Herbicidal rate of 5% or less (almost no effect)) | 0 (Herbicidal rate of 5% or less (almost no effect)) | 4 (Herbicidal rate of 70% or more and less than 90%) | 2 (Herbicidal rate of 20% or more and less than 40%) | 0 (Herbicidal rate of 5% or less (almost no effect)) | 0 (Herbicidal rate of 5% or less (almost no effect)) | 0 (Herbicidal rate of 5% or less (almost no effect)) | 1 (Herbicidal rate of 5% or more and less than 20%) | 4 (Herbicidal rate of 70% or more and less than 90%) | 4 (Herbicidal rate of 70% or more and less than 90%) | F: southern crabgrass, herbicidal effect grade (southern crabgrass [2]; [26]): 2 (Herbicidal rate of 20% or more and less than 40%); O: lambsquarters, herbicidal effect grade (lambsquarters [3]; [26]): 5 (Herbicidal rate of 90% or more (almost completely withered)); K: Italian ryegrass, herbicidal effect grade (Italian ryegrass [5]; [26]): 5 (Herbicidal rate of 90% or more (almost completely withered)); H: barnyard grass, herbicidal effect grade (barnyard grass [6]; [26]): 5 (Herbicidal rate of 90% or more (almost completely withered)); J: blackgrass, herbicidal effect grade (blackgrass [7]; [26]): 0 (Herbicidal rate of 5% or less (almost no effect)); G: green foxtail, herbicidal effect grade (green foxtail [8]; [26]): 4 (Herbicidal rate of 70% or more and less than 90%); P: chickweed, herbicidal effect grade (chickweed [9]; [26]): 5 (Herbicidal rate of 90% or more (almost completely withered)); N: redroot pigweed, herbicidal effect grade (redroot pigweed [13]; [26]): 3 (Herbicidal rate of 40% or more and less than 70%); M: velvetleaf, herbicidal effect grade (velvetleaf [15]; [26]): 5 (Herbicidal rate of 90% or more (almost completely withered)); L: windgrass, herbicidal effect grade (windgrass [20]; [26]): 5 (Herbicidal rate of 90% or more (almost completely withered)); I: wild oat, herbicidal effect grade (wild oat [22]; [26]): 3 (Herbicidal rate of 40% or more and less than 70%); R: persian speedwell, herbicidal effect grade (persian speedwell [25]; [26]): 5 (Herbicidal rate of 90% or more (almost completely withered))
2 | Cc1nn(C)c(=O)c(-c2c(-c3ccc(OC(F)(F)F)cc3)sc3cc(Cl)ccc23)c1O [3-149] | 0 (Herbicidal rate of 5% or less (almost no effect)) | 0 (Herbicidal rate of 5% or less (almost no effect)) | 0 (Herbicidal rate of 5% or less (almost no effect)) | 0 (Herbicidal rate of 5% or less (almost no effect)) | 4 (Herbicidal rate of 70% or more and less than 90%) | 0 (Herbicidal rate of 5% or less (almost no effect)) | 0 (Herbicidal rate of 5% or less (almost no effect)) | 5 (Herbicidal rate of 90% or more (almost completely withered)) | 1 (Herbicidal rate of 5% or more and less than 20%) | 0 (Herbicidal rate of 5% or less (almost no effect)) | 0 (Herbicidal rate of 5% or less (almost no effect)) | 0 (Herbicidal rate of 5% or less (almost no effect)) | 0 (Herbicidal rate of 5% or less (almost no effect)) | 4 (Herbicidal rate of 70% or more and less than 90%) | 3 (Herbicidal rate of 40% or more and less than 70%) | herbicidal effect on F: southern crabgrass (evaluation grade 0-5) (southern crabgrass [2]; [27]): 3 (Herbicidal rate of 40% or more and less than 70%); herbicidal effect on O: lambsquarters (evaluation grade 0-5) (lambsquarters [3]; [27]): 4 (Herbicidal rate of 70% or more and less than 90%); herbicidal effect on K: Italian ryegrass (evaluation grade 0-5) (Italian ryegrass [5]; [27]): 3 (Herbicidal rate of 40% or more and less than 70%); herbicidal effect on H: barnyard grass (evaluation grade 0-5) (barnyard grass [6]; [27]): 3 (Herbicidal rate of 40% or more and less than 70%); herbicidal effect on J: blackgrass (evaluation grade 0-5) (blackgrass [7]; [27]): 5 (Herbicidal rate of 90% or more (almost completely withered)); herbicidal effect on G: green foxtail (evaluation grade 0-5) (green foxtail [8]; [27]): 4 (Herbicidal rate of 70% or more and less than 90%); herbicidal effect on P: chickweed (evaluation grade 0-5) (chickweed [9]; [27]): 0 (Herbicidal rate of 5% or less (almost no effect)); herbicidal effect on N: redroot pigweed (evaluation grade 0-5) (redroot pigweed [13]; [27]): 3 (Herbicidal rate of 40% or more and less than 70%); herbicidal effect on M: velvetleaf (evaluation grade 0-5) (velvetleaf [15]; [27]): 4 (Herbicidal rate of 70% or more and less than 90%); herbicidal effect on L: windgrass (evaluation grade 0-5) (windgrass [20]; [27]): 5 (Herbicidal rate of 90% or more (almost completely withered)); herbicidal effect on I: wild oat (evaluation grade 0-5) (wild oat [22]; [27]): 0 (Herbicidal rate of 5% or less (almost no effect)); herbicidal effect on R: persian speedwell (evaluation grade 0-5) (persian speedwell [25]; [27]): 4 (Herbicidal rate of 70% or more and less than 90%)
